According to ChEMBL document CHEMBL1201862, “PubChem BioAssay data set” (2004):
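Protocol summary: plate cells (96-well), add compound at 5 concentrations, incubate 48 h, interpolate endpoints linearly. GI50 = concentration required for 50% inhibition of growth.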 Activity calls are given as the source filed them. Cut-off read from the data, not from the text of the source: active = GI50 up to about 1.1 µM and inactive = higher.

How the values were obtained:
Assay in all cases: NCI-60 cell line screen, 48 h
[1] = test system: A549
[2] = test system: SK-MEL-5
[3] = test system: MCF7
[4] = test system: DU-145
[5] = test system: HOP-92
[6] = test system: K562
[7] = test system: BT-549
[8] = test system: UACC-257
[9] = test system: LOX IMVI
[10] = test system: SF-539
[11] = test system: T47D
[12] = test system: OVCAR-8
[13] = test system: MOLT-4
[14] = test system: NCI-H460
[15] = test system: A498
[16] = test system: UACC-62
[17] = test system: U-251
[18] = test system: MDA-MB-435
[19] = test system: KM12
[20] = test system: SNB-75
[21] = test system: SK-MEL-2
[22] = test system: 786-0
[23] = test system: PC-3
[24] = test system: HCC 2998
[25] = test system: OVCAR-5
[26] = test system: SK-MEL-28
[27] = test system: SN12C
[28] = test system: NCI-H226
[29] = test system: SNB-19
[30] = test system: M14
[31] = test system: OVCAR-3
[32] = test system: Hs-578T
[33] = test system: CCRF-CEM
[34] = test system: SF-295
[35] = test system: COLO 205
[36] = test system: TK-10
[37] = test system: RXF 393
[38] = test system: NCI/ADR-RES
[39] = test system: Malme-3M
[40] = test system: UO-31
[41] = test system: RPMI-8226
[42] = test system: ACHN
[43] = test system: EKVX
[44] = test system: SW-620
[45] = test system: HCT-15
[46] = test system: MDA-MB-231
[47] = test system: CAKI-1
[48] = test system: IGROV-1
[49] = test system: SF-268
[50] = test system: SR
[51] = test system: NCI-H522
[52] = test system: OVCAR-4
[53] = test system: HL-60
[54] = test system: HOP-62
[55] = test system: HCT-116
[56] = test system: SK-OV-3
[57] = test system: HT-29
[58] = test system: MDA-N
[59] = test system: NCI-H23

Compound: Cc1cc(C)c2c(c1)CC1(Cc3cc(C)c(C)cc3C1=O)C2=O (centres undefined)
- GI50 [1]: 59.4 µM (inactive)
- GI50 [2]: > 100 µM (inactive)
- GI50 [3]: > 100 µM (inactive)
- GI50 [4]: > 100 µM (inactive)
- GI50 [5]: 60.5 µM (inactive)
- GI50 [6]: > 100 µM (inactive)
- GI50 [7]: > 100 µM (inactive)
- GI50 [8]: > 100 µM (inactive)
- GI50 [9]: > 100 µM (inactive)
- GI50 [10]: 46.2 µM (inactive)
- GI50 [11]: > 100 µM (inactive)
- GI50 [12]: > 100 µM (inactive)
- GI50 [13]: > 100 µM (inactive)
- GI50 [14]: > 100 µM (inactive)
- GI50 [15]: > 100 µM (inactive)
- GI50 [16]: > 100 µM (inactive)
- GI50 [17]: > 100 µM (inactive)
- GI50 [18]: 3.82 µM (inactive)
- GI50 [19]: > 100 µM (inactive)
- GI50 [20]: > 100 µM (inactive)
- GI50 [21]: > 100 µM (inactive)
- GI50 [22]: 71.9 µM (inactive)
- GI50 [23]: > 100 µM (inactive)
- GI50 [24]: > 100 µM (inactive)
- GI50 [25]: 48.1 µM (inactive)
- GI50 [26]: > 100 µM (inactive)
- GI50 [27]: > 100 µM (inactive)
- GI50 [28]: > 100 µM (inactive)
- GI50 [29]: > 100 µM (inactive)
- GI50 [30]: 27.7 µM (inactive)
- GI50 [31]: > 100 µM (inactive)
- GI50 [32]: 56.6 µM (inactive)
- GI50 [33]: > 100 µM (inactive)
- GI50 [34]: > 100 µM (inactive)
- GI50 [35]: > 100 µM (inactive)
- GI50 [36]: > 100 µM (inactive)
- GI50 [37]: 44.9 µM (inactive)
- GI50 [38]: > 100 µM (inactive)
- GI50 [39]: 4.75 µM (inactive)
- GI50 [40]: > 100 µM (inactive)
- GI50 [41]: > 100 µM (inactive)
- GI50 [42]: > 100 µM (inactive)
- GI50 [43]: > 100 µM (inactive)
- GI50 [44]: 95.7 µM (inactive)
- GI50 [45]: > 100 µM
- GI50 [46]: > 100 µM (inactive)
- GI50 [47]: > 100 µM (inactive)
- GI50 [48]: 90.4 µM (inactive)
- GI50 [49]: > 100 µM (inactive)
- GI50 [50]: 14.7 µM (inactive)
- GI50 [51]: > 100 µM (inactive)
- GI50 [52]: 77.8 µM (inactive)
- GI50 [53]: 7.1 µM (inactive)

Compound: COC(=O)C(/C(=N/NC(N)=O)C(=O)Nc1ccc(C)cc1)c1nc2ccc([N+](=O)[O-])cc2nc1O (centres undefined)
- GI50 [1]: > 100 µM (inactive)
- GI50 [2]: 57.9 µM (inactive)
- GI50 [3]: > 100 µM (inactive)
- GI50 [5]: > 100 µM (inactive)
- GI50 [6]: > 100 µM (inactive)
- GI50 [7]: > 100 µM (inactive)
- GI50 [8]: > 10 µM (inactive)
- GI50 [9]: 69.3 µM (inactive)
- GI50 [10]: > 100 µM (inactive)
- GI50 [54]: > 100 µM (inactive)
- GI50 [11]: > 100 µM (inactive)
- GI50 [12]: > 100 µM (inactive)
- GI50 [13]: > 100 µM (inactive)
- GI50 [14]: 52.2 µM (inactive)
- GI50 [15]: > 100 µM (inactive)
- GI50 [16]: > 100 µM (inactive)
- GI50 [17]: > 100 µM (inactive)
- GI50 [18]: > 100 µM (inactive)
- GI50 [19]: 74.3 µM (inactive)
- GI50 [20]: > 100 µM (inactive)
- GI50 [21]: > 100 µM (inactive)
- GI50 [22]: > 100 µM (inactive)
- GI50 [23]: > 100 µM (inactive)
- GI50 [24]: 70.1 µM (inactive)
- GI50 [25]: > 100 µM (inactive)
- GI50 [26]: > 100 µM (inactive)
- GI50 [27]: > 100 µM (inactive)
- GI50 [28]: > 100 µM (inactive)
- GI50 [30]: > 100 µM (inactive)
- GI50 [31]: > 100 µM (inactive)
- GI50 [32]: 67.3 µM (inactive)
- GI50 [33]: > 10 µM (inactive)
- GI50 [34]: > 100 µM (inactive)
- GI50 [36]: > 100 µM (inactive)
- GI50 [37]: > 100 µM (inactive)
- GI50 [55]: > 100 µM (inactive)
- GI50 [38]: > 100 µM (inactive)
- GI50 [39]: > 100 µM (inactive)
- GI50 [41]: > 100 µM (inactive)
- GI50 [43]: 56.1 µM (inactive)
- GI50 [44]: > 100 µM (inactive)
- GI50 [45]: 37.6 µM
- GI50 [46]: > 100 µM (inactive)
- GI50 [47]: > 100 µM (inactive)
- GI50 [48]: > 100 µM (inactive)
- GI50 [49]: > 100 µM (inactive)
- GI50 [56]: > 100 µM (inactive)
- GI50 [50]: > 100 µM (inactive)
- GI50 [51]: 27.2 µM (inactive)
- GI50 [57]: > 100 µM (inactive)
- GI50 [52]: 50.2 µM (inactive)
- GI50 [58]: > 100 µM (inactive)

Compound: N#C[C@H](c1nc2ccccc2s1)c1nc2ccccc2nc1Cl
- GI50 [1]: 32.4 µM (inactive)
- GI50 [2]: > 100 µM (inactive)
- GI50 [3]: 5.56 µM (inactive)
- GI50 [5]: 19.1 µM (inactive)
- GI50 [7]: 4.79 µM (inactive)
- GI50 [8]: 14.7 µM (inactive)
- GI50 [10]: 37 µM (inactive)
- GI50 [54]: 17.9 µM (inactive)
- GI50 [11]: > 100 µM (inactive)
- GI50 [12]: > 100 µM (inactive)
- GI50 [13]: > 100 µM (inactive)
- GI50 [14]: 18.6 µM (inactive)
- GI50 [15]: > 100 µM (inactive)
- GI50 [16]: 14.3 µM (inactive)
- GI50 [17]: > 100 µM (inactive)
- GI50 [18]: > 100 µM (inactive)
- GI50 [19]: 80.9 µM (inactive)
- GI50 [20]: > 100 µM (inactive)
- GI50 [21]: 33.7 µM (inactive)
- GI50 [22]: > 100 µM (inactive)
- GI50 [23]: 31 µM (inactive)
- GI50 [24]: 2.67 µM (inactive)
- GI50 [25]: 17.9 µM (inactive)
- GI50 [26]: > 100 µM (inactive)
- GI50 [27]: > 100 µM (inactive)
- GI50 [28]: > 100 µM (inactive)
- GI50 [29]: > 100 µM (inactive)
- GI50 [59]: 15.3 µM (inactive)
- GI50 [30]: 15.7 µM (inactive)
- GI50 [31]: 17.2 µM (inactive)
- GI50 [32]: 94.6 µM (inactive)
- GI50 [33]: > 100 µM (inactive)
- GI50 [34]: 17.1 µM (inactive)
- GI50 [35]: > 100 µM (inactive)
- GI50 [37]: 13.4 µM (inactive)
- GI50 [55]: > 100 µM (inactive)
- GI50 [38]: > 100 µM (inactive)
- GI50 [39]: > 100 µM (inactive)
- GI50 [40]: 23.3 µM (inactive)
- GI50 [41]: > 100 µM (inactive)
- GI50 [42]: 14.2 µM (inactive)
- GI50 [43]: > 100 µM (inactive)
- GI50 [44]: > 100 µM (inactive)
- GI50 [45]: 4.04 µM
- GI50 [46]: > 100 µM (inactive)
- GI50 [47]: > 100 µM (inactive)
- GI50 [48]: > 100 µM (inactive)
- GI50 [56]: 23.6 µM (inactive)
- GI50 [50]: > 100 µM (inactive)
- GI50 [51]: 57.3 µM (inactive)
- GI50 [57]: > 100 µM (inactive)
- GI50 [52]: 16.3 µM (inactive)
- GI50 [58]: > 100 µM (inactive)
- GI50 [53]: > 100 µM (inactive)
